Assays:
human P2X7 = molecular target: T1, human P2X7 (Homo sapiens, UniProt Q99572); experiment: Intracellular Calcium Flux (FLIPR) Assay; type: cell-based; conditions: 1321N1 cells stably expressing full length human P2X7; agonist 100 μM BzATP; fluo-3 calcium flux; read-out: FLIPR pIC50 hP2X7-1321n1 (converted)
T1 construct: 1321N1 cells stably expressing the full length human P2X7 gene (1321N1-hP2X7)
T1 sequence (Q99572 1-595): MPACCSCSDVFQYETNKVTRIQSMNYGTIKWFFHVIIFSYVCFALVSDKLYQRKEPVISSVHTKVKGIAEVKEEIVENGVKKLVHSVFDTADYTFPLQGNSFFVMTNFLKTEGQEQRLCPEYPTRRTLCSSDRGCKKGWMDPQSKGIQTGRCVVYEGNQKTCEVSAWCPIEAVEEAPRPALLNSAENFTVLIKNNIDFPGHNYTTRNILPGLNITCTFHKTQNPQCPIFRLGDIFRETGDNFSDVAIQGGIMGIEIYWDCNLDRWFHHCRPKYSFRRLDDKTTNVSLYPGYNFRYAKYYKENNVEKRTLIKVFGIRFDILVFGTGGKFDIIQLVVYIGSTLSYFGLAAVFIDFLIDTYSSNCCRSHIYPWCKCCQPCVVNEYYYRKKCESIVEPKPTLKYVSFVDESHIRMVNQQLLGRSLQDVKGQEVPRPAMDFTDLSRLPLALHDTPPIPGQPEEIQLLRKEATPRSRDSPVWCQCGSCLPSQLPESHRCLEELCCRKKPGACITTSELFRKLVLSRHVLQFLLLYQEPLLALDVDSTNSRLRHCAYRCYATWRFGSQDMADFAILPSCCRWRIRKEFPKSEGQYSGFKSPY
Experimental: Stock solutions of compounds were prepared from powders as a 10 mM DMSO stock solution. These solutions were stored at RT during the two week period of these experiments to prevent freeze-thaw of the DMSO stocks. The DMSO stocks were added to the appropriate assay buffer at a concentration of 10 μM, and then diluted serially to the final concentrations that were tested. No observable precipitate was formed at any time during this process. The aqueous solutions of compounds as well as ATP (Sigma A7699) and BzATP (Sigma B6396) were prepared fresh for each day of experiment.
1321N1 cells stably expressing the full length human P2X7 gene (1321N1-hP2X7) and HEK293 cells stably expressing the full length rat P2X7 gene (HEK293-rP2X7) were obtained from the Roche Cell Culture Facility. 1321N1-hP2X7 cells were grown in Dulbecco's Modified Eagle's Medium (DMEM) high glucose supplemented with 10% FBS and 250 μg/mL G418. HEK293-rP2X7 cells were grown in DMEM/F-12 supplemented with 10% FBS, 1 mM CaCl2, 2 mM MgCl2, 2 mM L-Glutamine and 500 μg/ml G418. Cells were split such that they never became >70% confluent.
On the day prior to the experiment, 1321N1-hP2X7 or HEK293-rP2X7 cells were released into suspension with calcium-free PBS+Versene and washed by centrifugation with calcium-free PBS to remove the Versene. Cells were resuspended in growth medium at a density of 2.5×10^5 cells/mL and seeded into black walled, clear bottom 96 well plates (50,000 cells/well) approximately 18 hr prior to intracellular calcium flux experiments.
On the day of the experiment, plates were washed with FLIPR buffer (calcium- and magnesium-free Hank's Balanced Salt Solution (HBSS) supplemented with 10 mM Hepes, 2.5 mM probenecid and 2 mM calcium chloride) using a BIO-TEK 96 channel plate washer and incubated with […] fluo-3 dye at 37° C. for one hr. The dye was then removed by plate washing and the cells were allowed to equilibrate for 20 min at room temperature with antagonist or vehicle (FLIPR buffer). Agonist (100 μM BzATP final concentration for hP2X7; 5 μM BzATP final concentration or rP2X7) was added online with the FLIPR and fluorescence measurements made at 1 sec intervals for 60 sec followed by 3 sec intervals for a further 4 min (5 min total). A final addition of 5 μM ionomycin was made and the maximal BzATP-evoked fluorescence normalized to the maximal ionomycin-evoked fluorescence.

IC50 (human P2X7) [nM]	melting point [°C]	Structure (SMILES)
1120	187.7 to 188.4	CSc1cnc(NC(=O)C(Cc2ccc(F)cc2)c2ccc(S(C)(=O)=O)cc2)cn1 (stereo not drawn) [Compound I-14, 3-(4-Fluoro-phenyl)-2-(4-methanesulfonyl-phenyl)-N-(5-methylsulfanyl-pyrazin-2-yl)-propionamide]
224	106 to 107	CCOC(=O)c1cnc(NC(=O)C(Cc2ccc(F)cc2)c2ccc(S(C)(=O)=O)cc2)cn1 (stereo not drawn) [Compound I-15, 5-[3-(4-Fluoro-phenyl)-2-(4-methanesulfonyl-phenyl)-propionylamino]-pyrazine-2-carboxylic acid ethyl ester]
234	261 to 263.7	CS(=O)(=O)c1ccc(C(Cc2ccc(F)cc2)C(=O)Nc2nc3ncccc3o2)cc1 (stereo not drawn) [Compound I-18, 3-(4-Fluoro-phenyl)-2-(4-methanesulfonyl-phenyl)-N-oxazolo[4,5-b]pyridin-2-yl-propionamide]
708	172.4 to 175.3	Cc1cnc(NC(=O)C(Cc2ccc(F)cc2)c2ccc(S(C)(=O)=O)cc2)cn1 (stereo not drawn) [Compound I-19, 3-(4-Fluoro-phenyl)-2-(4-methanesulfonyl-phenyl)-N-(5-methyl-pyrazin-2-yl)-propionamide]
20.4	128 to 130	CS(=O)(=O)c1ccc(C(Cc2ccc(F)cc2)C(=O)Nc2nc3ccc(CO)cc3o2)cc1 (stereo not drawn) [Compound I-20, 3-(4-Fluoro-phenyl)-N-(6-hydroxymethyl-benzooxazol-2-yl)-2-(4-methanesulfonyl-phenyl)-propionamide]
646	69 to 82.3	COCc1cnc(NC(=O)C(Cc2ccc(F)cc2)c2ccc(S(C)(=O)=O)cc2)cn1 (stereo not drawn) [Compound I-21, 3-(4-Fluoro-phenyl)-2-(4-methanesulfonyl-phenyl)-N-(5-methoxymethyl-pyrazin-2-yl)-propionamide]
741	99 to 100	CCOCc1cnc(NC(=O)C(Cc2ccc(F)cc2)c2ccc(S(C)(=O)=O)cc2)cn1 (stereo not drawn) [Compound I-22, N-(5-Ethoxymethyl-pyrazin-2-yl)-3-(4-fluoro-phenyl)-2-(4-methanesulfonyl-phenyl)-propionamide]
851	191.6 to 192.7	CS(=O)(=O)c1ccc(C(Cc2ccc(F)cc2)C(=O)Nc2cncc(Cl)n2)cc1 (stereo not drawn) [Compound I-25, N-(6-Chloro-pyrazin-2-yl)-3-(4-fluoro-phenyl)-2-(4-methanesulfonyl-phenyl)-propionamide]
339	82.8 to 98.7	CS(=O)(=O)c1ccc(C(Cc2cccc(F)c2)C(=O)Nc2cnc(CO)cn2)cc1 (stereo not drawn) [Compound I-26, 3-(3-Fluoro-phenyl)-N-(5-hydroxymethyl-pyrazin-2-yl)-2-(4-methanesulfonyl-phenyl)-propionamide]
501	177.5 to 177.9	O=C(Nc1nc2ccccc2o1)C(Cc1ccc(F)cc1)c1ccc(F)cc1F (stereo not drawn) [Compound I-29, N-Benzooxazol-2-yl-2-(2,4-difluoro-phenyl)-3-(4-fluoro-phenyl)-propionamide]
457	122 to 125	CCOC(=O)c1ccc(C(Cc2ccc(F)cc2)C(=O)Nc2nc3ccccc3o2)cc1 (stereo not drawn) [Compound I-30, 4-[1-(Benzooxazol-2-ylcarbamoyl)-2-(4-fluoro-phenyl)-ethyl]-benzoic acid ethyl ester]
282	87 to 90	CC(C)(O)c1ccc(C(Cc2ccc(F)cc2)C(=O)Nc2nc3ccccc3o2)cc1 (stereo not drawn) [Compound I-31, N-Benzooxazol-2-yl-3-(4-fluoro-phenyl)-2-[4-(1-hydroxy-1-methyl-ethyl)-phenyl]-propionamide]
20.4	137 to 139	NC(=O)c1ccc(C(Cc2ccc(F)cc2)C(=O)Nc2nc3ccccc3o2)cc1 (stereo not drawn) [Compound I-32, 4-[1-(Benzooxazol-2-ylcarbamoyl)-2-(4-fluoro-phenyl)-ethyl]-benzamide]
347	134 to 136	O=C(NCCO)c1ccc(C(Cc2ccc(F)cc2)C(=O)Nc2nc3ccccc3o2)cc1 (stereo not drawn) [Compound I-33, 4-[1-(Benzooxazol-2-ylcarbamoyl)-2-(4-fluoro-phenyl)-ethyl]-N-(2-hydroxy-ethyl)-benzamide]
389	149 to 151	CN(C)CCNC(=O)c1ccc(C(Cc2ccc(F)cc2)C(=O)Nc2nc3ccccc3o2)cc1 (stereo not drawn) [Compound I-34, 4-[1-(Benzooxazol-2-ylcarbamoyl)-2-(4-fluoro-phenyl)-ethyl]-N-(2-dimethylamino-ethyl)-benzamide]

— patent US20120149718A1, “Amido Compounds” (priority 2010, published 2012)
